Assays:
Assay type in all cases: in vivo
Setaria viridis [1] = assay: Herbicidal pre-emergence action; details: 1280 g/ha, visual grading after ca. 3 weeks vs untreated controls
Text: (§1) Seeds of mono- and dicotyledonous weed plants were sown in plastic pots (double sowings with one species of mono- and one species of dicotyledonous weed plants per pot), in sandy loam, and covered with soil. The compounds according to the invention, formulated in the form of wettable powders (WP) or as emulsifiable concentrates (EC), were applied to the surface of the covering soil as an aqueous suspension or as an emulsion, with the addition of 0.5% of an additive, at an application rate of 600 litres of water per hectare (converted). Following treatment, the pots were placed in a greenhouse and kept under optimum growth conditions for the test plants. The visual grading of the damage to the test plants is carried out after ca. 3 weeks in comparison to untreated controls (herbicidal effect in percent (%): 100% effect = plants have died, 0% effect = as control plants). Seeds of mono- and dicotyledonous weed plants were sown in plastic pots (double sowings with one species of mono- and one species of dicotyledonous weed plants per pot), in sandy loam, and covered with soil. The compounds according to the invention, formulated in the form of wettable powders (WP) or as emulsifiable concentrates (EC), were applied to the surface of the covering soil as an aqueous suspension or as an emulsion, with the addition of 0.5% of an additive, at an application rate of 600 litres of water per hectare (converted). Following treatment, the pots were placed in a greenhouse and kept under optimum growth conditions for the test plants. The visual grading of the damage to the test plants is carried out after ca. 3 weeks in comparison to untreated controls (herbicidal effect in percent (%): 100% effect = plants have died, 0% effect = as control plants).

Kochia scoparia [2] = assay: Herbicidal pre-emergence action; details: 1280 g/ha, visual grading after ca. 3 weeks vs untreated controls
Text: as §1

Amaranthus retroflexus [3] = assay: Herbicidal pre-emergence action; details: 1280 g/ha, visual grading after ca. 3 weeks vs untreated controls
Text: as §1

Lolium rigidum [4] = assay: Herbicidal pre-emergence action; details: 1280 g/ha, visual grading after ca. 3 weeks vs untreated controls
Text: as §1

Stellaria media [5] = assay: Herbicidal pre-emergence action; details: visual grading after ca. 3 weeks vs untreated controls
Text: as §1

Poa annua [6] = assay: Herbicidal pre-emergence action; details: visual grading after ca. 3 weeks vs untreated controls
Text: as §1

Matricaria inodora [7] = assay: Herbicidal pre-emergence action; details: 1280 g/ha, visual grading after ca. 3 weeks vs untreated controls
Text: as §1

Digitaria sanguinalis [8] = assay: Herbicidal pre-emergence action; details: 1280 g/ha, visual grading after ca. 3 weeks vs untreated controls
Text: as §1

Veronica persica [9] = assay: Herbicidal pre-emergence action; details: 1280 g/ha, visual grading after ca. 3 weeks vs untreated controls
Text: as §1

Setaria viridis [10] = assay: Herbicidal post-emergence action; details: visual assessment after ca. 3 weeks vs untreated controls
Text: (§2) Seeds of mono- and dicotyledonous weed plants were sown in plastic pots (double sowings with one species of mono- and one species of dicotyledonous weed plants per pot), in sandy loam, covered with soil and grown under controlled growth conditions. 2 to 3 weeks after sowing, the test plants were sprayed in the single-leaf stage. The compounds according to the invention, formulated in the form of wettable powders (WP) or as emulsifiable concentrates (EC), were sprayed onto the green plant parts as an aqueous suspension or as an emulsion, with the addition of 0.5% of an additive, at an application rate of 600 litres of water per hectare (converted). The test plants were placed in the greenhouse for ca. 3 weeks under optimum growth conditions, and then the effect of the preparations is assessed visually in comparison with untreated controls (herbicidal effect in percent (%): 100% effect = plants have died, 0% effect = as control plants).
as §2, with “(EC), are” for “(EC), were”, “controls (herbicidaleffectinpercent(%):100%effect=plantshavedied,0%effect=ascontrolplants). [formula]” for “controls (herbicidal effect in percent (%): 100% effect = plants have died, 0% effect = as control plants).”

Kochia scoparia [11] = assay: Herbicidal post-emergence action; details: 1280 g/ha, visual assessment after ca. 3 weeks vs untreated controls
Text: as §2
as §2, with “(EC), are” for “(EC), were”, “controls (herbicidaleffectinpercent(%):100%effect=plantshavedied,0%effect=ascontrolplants). [formula]” for “controls (herbicidal effect in percent (%): 100% effect = plants have died, 0% effect = as control plants).”

Alopecurus myosuroides = assay: Herbicidal post-emergence action; details: 1280 g/ha, visual assessment after ca. 3 weeks vs untreated controls
Text: as §2
as §2, with “(EC), are” for “(EC), were”, “controls (herbicidaleffectinpercent(%):100%effect=plantshavedied,0%effect=ascontrolplants). [formula]” for “controls (herbicidal effect in percent (%): 100% effect = plants have died, 0% effect = as control plants).”

Amaranthus retroflexus [12] = assay: Herbicidal post-emergence action; details: 1280 g/ha, visual assessment after ca. 3 weeks vs untreated controls
Text: as §2
as §2, with “(EC), are” for “(EC), were”, “controls (herbicidaleffectinpercent(%):100%effect=plantshavedied,0%effect=ascontrolplants). [formula]” for “controls (herbicidal effect in percent (%): 100% effect = plants have died, 0% effect = as control plants).”

Lolium rigidum [13] = assay: Herbicidal post-emergence action; details: 1280 g/ha, visual assessment after ca. 3 weeks vs untreated controls
Text: as §2
as §2, with “(EC), are” for “(EC), were”, “controls (herbicidaleffectinpercent(%):100%effect=plantshavedied,0%effect=ascontrolplants). [formula]” for “controls (herbicidal effect in percent (%): 100% effect = plants have died, 0% effect = as control plants).”

Stellaria media [14] = assay: Herbicidal post-emergence action; details: visual assessment after ca. 3 weeks vs untreated controls
Text: as §2
as §2, with “(EC), are” for “(EC), were”, “controls (herbicidaleffectinpercent(%):100%effect=plantshavedied,0%effect=ascontrolplants). [formula]” for “controls (herbicidal effect in percent (%): 100% effect = plants have died, 0% effect = as control plants).”

Poa annua [15] = assay: Herbicidal post-emergence action; details: visual assessment after ca. 3 weeks vs untreated controls
Text: as §2
as §2, with “(EC), are” for “(EC), were”, “controls (herbicidaleffectinpercent(%):100%effect=plantshavedied,0%effect=ascontrolplants). [formula]” for “controls (herbicidal effect in percent (%): 100% effect = plants have died, 0% effect = as control plants).”

Matricaria inodora [16] = assay: Herbicidal post-emergence action; details: 1280 g/ha, visual assessment after ca. 3 weeks vs untreated controls
Text: as §2
as §2, with “(EC), are” for “(EC), were”, “controls (herbicidaleffectinpercent(%):100%effect=plantshavedied,0%effect=ascontrolplants). [formula]” for “controls (herbicidal effect in percent (%): 100% effect = plants have died, 0% effect = as control plants).”

Digitaria sanguinalis [17] = assay: Herbicidal post-emergence action; details: visual assessment after ca. 3 weeks vs untreated controls
Text: as §2
as §2, with “(EC), are” for “(EC), were”, “controls (herbicidaleffectinpercent(%):100%effect=plantshavedied,0%effect=ascontrolplants). [formula]” for “controls (herbicidal effect in percent (%): 100% effect = plants have died, 0% effect = as control plants).”

Veronica persica [18] = assay: Herbicidal post-emergence action; details: visual assessment after ca. 3 weeks vs untreated controls
Text: as §2
as §2, with “(EC), are” for “(EC), were”, “controls (herbicidaleffectinpercent(%):100%effect=plantshavedied,0%effect=ascontrolplants). [formula]” for “controls (herbicidal effect in percent (%): 100% effect = plants have died, 0% effect = as control plants).”

## O=C(Nc1ncns1)c1ccncc1I [Example 1-004]
Setaria viridis [1]
  herbicidal effect in percent (%), SETVI: 90%
Kochia scoparia [2]
  herbicidal effect in percent (%), KCHSC: 90%
Amaranthus retroflexus [3]
  herbicidal effect in percent (%), AMARE: 90%
Lolium rigidum [4]
  herbicidal effect in percent (%), LOLRI: 100%
Stellaria media [5]; 320 g/ha
  herbicidal effect in percent (%), STEME: 90%
Stellaria media [5]; 1280 g/ha
  herbicidal effect in percent (%), STEME: 90%
Poa annua [6]; 320 g/ha
  herbicidal effect in percent (%), POAAN: 90%
Poa annua [6]; 1280 g/ha
  herbicidal effect in percent (%), POAAN: 90%
Matricaria inodora [7]
  herbicidal effect in percent (%), MATIN: 90%
Digitaria sanguinalis [8]
  herbicidal effect in percent (%), DIGSA: 90%
Veronica persica [9]
  herbicidal effect in percent (%), VERPE: 90%
Setaria viridis [10]; 320 g/ha
  herbicidal effect in percent (%), SETVI: 90%
Setaria viridis [10]; 1280 g/ha
  herbicidal effect in percent (%), SETVI: 90%
Kochia scoparia [11]
  herbicidal effect in percent (%), KCHSC: 90%
Alopecurus myosuroides
  herbicidal effect in percent (%), ALOMY: 100%
Amaranthus retroflexus [12]
  herbicidal effect in percent (%), AMARE: 100%
Lolium rigidum [13]
  herbicidal effect in percent (%), LOLRI: 100%
Stellaria media [14]; 320 g/ha
  herbicidal effect in percent (%), STEME: 100%
Stellaria media [14]; 1280 g/ha
  herbicidal effect in percent (%), STEME: 100%
Poa annua [15]; 320 g/ha
  herbicidal effect in percent (%), POAAN: 100%
Poa annua [15]; 1280 g/ha
  herbicidal effect in percent (%), POAAN: 100%
Matricaria inodora [16]
  herbicidal effect in percent (%), MATIN: 100%
Digitaria sanguinalis [17]; 320 g/ha
  herbicidal effect in percent (%), DIGSA: 90%
Digitaria sanguinalis [17]; 1280 g/ha
  herbicidal effect in percent (%), DIGSA: 100%
Veronica persica [18]; 320 g/ha
  herbicidal effect in percent (%), VERPE: 100%
Veronica persica [18]; 1280 g/ha
  herbicidal effect in percent (%), VERPE: 100%

Source: EP4238973A1, “SUBSTITUTED 1,2,4-THIADIAZOLYL ISONICOTINAMIDES, SALTS OR N-OXIDES THEREOF AND THEIR USE AS HERBICIDALLY ACTIVE SUBSTANCES” (Bayer AG, priority 2022, dated 2023)
